How the values were obtained:
[1] = tested on: carrageenan- induced edema in rats; assay: Anti-inflammatory action: carrageenan-induced leg edema in rats; assay type: in vivo, Wister male rats; details: 0.3 mg/kg by the tail venous route 1 hour after carrageenan, fat emulsions, leg volume vs physiological saline groups 3 hours after carrageenan
Protocol: Wister male rats were divided into groups of 6 rats each. 0.1 mℓ of a 1% solution of carrageenan in physiological saline was injected subcutaneously in the heel of a right hind leg for each rat to develop a leg edema. One hour after the injection of carrageenan, a drug to be tested was injected in a dosage of 0.3 mg/kg by the tail venous route. Thereafter the leg volume was measured with suitable time intervals.
The fat emulsions prepared in Preparation Examples 1 to 4 were tested. As a control drug, physiological saline was used.
The degree of the anti-inflammatory action was indicated as an inhibitory ratio in connection with the leg volume of physiological saline-administered groups 3 hours after the injection of carrageenan.

[2] = Solubility in soybean oil (crystal precipitation on standing); assay type: physicochemical; details: 200 mg dissolved in 1 mL soybean oil at 70°C, then standing at 25°C for 2 days and nights
Protocol: In order to examine the solubility of the above-obtained substance in soybean oil, 200 mg of the substance was dissolved in 1 m£ of soybean oil while heating at 70°C and, thereafter, the resulting solution was allowed to stand at 25°C for 2 days and nights.

SMILES	Anti-inflammatory Action Edema Inhibition Ratio (%) [1]	solubility in soybean oil: precipitation of crystals [2]
CCCCOC(=O)COC(=O)Cc1c(C)n(C(=O)c2ccc(Cl)cc2)c2ccc(OC)cc12 [Example 1, butoxycarbonylmethyl indomethacin ester]	60%	
CCCCCCOC(=O)COC(=O)Cc1c(C)n(C(=O)c2ccc(Cl)cc2)c2ccc(OC)cc12 [Example 2, Hexyloxycarbonylmethyl indomethacin ester]	62%	
COc1ccc2c(c1)c(CC(=O)OCOC(=O)C(C)(C)C)c(C)n2C(=O)c1ccc(Cl)cc1 [Example 3, Pivaloyloxymethyl indomethacin ester]	58%	
CCCCOC(=O)COC(=O)Cc1c(C)n(C(=O)c2ccc(F)cc2)c2ccc(OC)cc12 [Example 4, butoxycarbonylmethyl 1-(p-fluorobenzoyl)-5-methoxy-2-methylindole-3-acetate]	68%	Precipitation of crystals was not observed at all

Reference: patent EP0144845A1, “Indolylacetic acid derivatives and preparations containing same for medical treatments” (GREEN CROSS CORPORATION, priority 1983, dated 1985)
